Measured values published in US8048866B2, “Preventive and/or therapeutic agent for calcipenia” (Nippon Beet Sugar MFG., Co., Ltd., priority 2004, dated 2011).

Tests used:
rumen microorganisms = assay: Degradability of DFA III and DFA IV in the rumen (incubation with rumen liquid inoculum); type: in vitro ADME, Holstein steer and cow; details: 400 mg/dl in culture solution, 39° C., 0 to 24 hours
Text: In ruminants, for DFA III and DFA IV to accelerate calcium absorption, they have to reach intestines by avoiding degradation thereof in the rumen with microorganisms. Accordingly, degradability of DFA III and DFA IV in the rumen was examined.
A rumen liquid was collected from each of a rumen cannula-fitted Holstein steer to which 4 kg of a concentrate was supplied in consideration of controlling nutrition of a dry cow and which was caused to freely take hay and a cow in which a milk yield was 30 kg and a rate of a concentrate in a supplied feed was 55%. The liquid was filtered through a four-fold gauze to form an inoculum.
As a buffer, a 0.25 M phosphate buffer (KH2PO4 6.8045 g+Na2HPO4.12H2O 26.8605 g/500 ml, pH 7.0) was used, and 1 g of DFA III or DFA IV per 100 ml of this buffer was added.
30 ml of the inoculum and 20 ml of the buffer were added to a 200-ml conical flask. […] In 0, 1, 2, 4, 8, 12 and 24 hours of the culturing, the culture solution was collected from the flask, and analyzed.
The culture solution in the flask was stirred. After 20 ml of the culture solution was collected, 0.1 ml of sulfosalicylic acid (20% solution was added for deproteinization. After centrifugation by 8,000 rotations for 10 minutes, the solution was filtered with a filter paper of 0.45 μm, and DFA III and DFA IV were analyzed by liquid chromatography. […]

Holstein cows = assay: Effect of supply of DFA III and DFA IV on calcium metabolism, lactation and urine excretion amount of cows; type: in vivo, cow; details: supplied feeds and 100 g of DFA; for Excretion amount of calcium in urine / Milk fat rate / Milk protein rate / Milk yield: main period of 5 days
Text: The effect of supply of DFA III and DFA IV on calcium metabolism, lactation and a urine excretion amount of cows was examined.
Nine Holstein cows (2 to 4 calvings, 90 to 120 days after calving, average body weight 642 kg, average milk yield 36 kg) were divided into three groups, and subjected to a test by 3×3 Latin squares with one period of 15 days (preliminary period of 10 days and main period of 5 days).
Regarding supplied feeds for a day, a grass silage, a cone silage and a beat pulp were used in fixed amounts of 3, 4 and 2 kg in terms of a dry weight respectively, and an amount of a concentrate (crude protein content 18% TDN content 74%) was ⅓ the milk yield. Further, a mineral agent and a vitamin agent were not supplied, and an insufficient feed for each cow was supplemented by supplying hay. These supplied feeds have the same contents in all cows, and they were caused to freely drink water.
The foregoing supply only was applied to a control group Supplied feeds and 100 g of DFA III were applied to a DFA III group, and supplied feeds and 100 g of DFA IV were applied to a DFA IV group.
The cows were accommodated in a metabolism test laboratory, and milking was conducted twice at 5 o'clock and 17 o'clock. The milk yield was measured and milk composition were analyzed for five days as the main period. The total amount of feces and urine was recovered for five days as the main period, and the fixed amounts thereof were mixed and subjected to analysis.
As is apparent from the results, no great difference was found among the groups in the dry matter intake and the calcium intake. The milk yield was increased in the DFA III and DFA IV groups by approximately 1 kg in comparison to the control group. No difference was found either among the groups in the milk fat rate and the milk protein rate. […] In the table, TDN indicates a total amount of a digestible nutrient.

Holstein calving cows [1] = assay: Degree of udder edema by palpation after oral administration of DFA III and DFA IV; type: in vivo, cow; details: time 0, before administration; heavy 4, medium 3, light 2, normal 1
Protocol: (§1) As test cows, 15 Holstein calving cows with two or more calvings were used, and divided into three groups each consisting of 5 cows. Immediately after calving, the blood was sampled from the tail root. 300 ml of warm water was orally administered to the control group. 100 g of DFA III and 100 g of DFA IV each dissolved in 250 ml of warm water were orally administered to the DFA III group and the DFA IV group respectively. The blood was sampled from the tail root after 6 hours and 60 hours from the blood sampling immediately after calving. The degree of the udder edema was also confirmed by palpation.
(§2) The blood was centrifuged at 3,000 rpm for 10 minutes, and the serum portion was stored at −30° C. until analysis. Calcium was analyzed by the OCPC method. The degree of udder was examined by palpation. A heavy degree was defined as 4, a medium degree as 3, a light degree as 2 and a normal degree as 1 respectively.

Holstein calving cows [2] = assay: Influence of DFA III and DFA IV on calcium concentration in blood in calving of cows (OCPC method); type: in vivo, cow; details: for Increase of calcium concentration in blood from immediately after calving: in 6 hours, 100 g orally
Protocol: The influence of DFA III and DFA IV on the calcium concentration in blood in calving of cows was examined.
as §1
Regarding the feeds supplied after calving, the cows were caused to freely take 20 kg/day of TMR containing a grass silage, a corn silage and a concentrate (hereinafter referred to as a mixed feed: forage rate 47.8%), 4 kg of a concentrate and hay. Conditions of calculating the requirement are as follow: day after calving—3, 2 calvings, body weight—612 kg, milk yield—20 kg, milk fat rate—4.0%, and milk protein rate—3.2%. NEl indicates a net energy of lactation, and efNDF indicates an effective neutral detergent insoluble fiber.
as §2

Holstein calving cows [3] = assay: Effect of DFA III and calcium and vitamin D on calcium concentration in blood at the time of calving of cows; type: in vivo, cow
Protocol: The effect of DFA III and calcium and vitamin D on the calcium concentration in blood at the time of calving of cows was examined.
As test cows, 15 Holstein calving cows with 2 or more calvings were used, and divided into three groups each consisting of 5 cows. Immediately after calving, the blood was sampled from the tall root. 100 g of DFA III dissolved in 250 ml of warm water was orally administered to the DFA III group. DFA III and calcium carbonate in amounts of 100 g each which were dissolved in 200 ml of warm water were orally administered to the DFA III+Ca group. DFA III and calcium carbonate in amounts of 100 a each and 10,000 IU of vitamin D which were dissolved in 200 ml of warm water were orally administered to the DFA III+Ca+VD group. The blood was sampled from the tail root after 6, 24 and 70 hours from the blood sampling immediately after calving.
The supply of the feeds and the analyses of the calcium concentration in blood were conducted in the same manner as in Example 3.

mice = assay: Acute toxicity test for 10 days using mice; type: in vivo; details: oral administration, 1,000 mg/kg
Text: The dose of DFA III is not particularly limited to the foregoing range. When it is ingested over a long period of time for preservation of the health or for maintenance of the health, the dose may be lower than the foregoing range.

[4] = test system: cows with 2 or more calvings; assay: Influence of DFA III supply at a dry period on calcium concentration in blood of cows after calving; type: in vivo, cow
Protocol: The influence of the DFA III supply at a dry period on the calcium concentration in blood of cows after calving was tested in vivo using actual cows.
It has been so far considered that DFA III is administered to cows after caving which is effective for improving the calcium concentration in blood. On the other hand, the calcium concentration in blood is already decreased immediately after calving. As the decree of decrease is greater, vitality and appetite are weak and tend to be slowly recovered. Accordingly, DFA III was supplied at a dry period, and the influence of DFA III on the calcium concentration in blood immediately after calving was examined.
DFA III supply; DFA III (50 g/day) was supplied at a dry period from 3 weeks before an expected date of calving through calving.
Without DFA III supply; DFA III was not supplied before calving.
90 g of DFA III was, each time, supplied to both of the DFA III supply group and the group without DFA supply 0 hour and 6 hours after calving. At a dry period, 4 kg/day of a feed obtained by adding 12,000 IU of vitamin D to 4 kg of a feed was supplied to both the areas.
Cows with 2 or more calvings were used.
As DFA III supply cows, 10 cows which experienced calving after Apr. 30, 2004 were subjected to a test. As cows without DFA III supply, 38 cows which experienced calving from Jul. 14, 2002 through Apr. 18, 2004 and to which DFA III was not supplied at a dry period were used. Since the test started on Jul. 14, 2002, the test cows include 15 cows which experienced calving twice (8 DFA III supply cows and 7 cows without DFA III supply) during this period.
In dry cows, milking was stopped 2 months before an expected date of calving. Then, a concentrate (crude protein content 18%, TDN 72%, Ca 0.9% P 0.5%) was supplied in an amount of 2 kg/day until 3 weeks before an expected date of calving. A concentrate (crude protein content 20%, TDN 75%, Ca 0.2%, P 0.5%) was supplied in an amount of 4 kg/day from 3 weeks before an expected date of calving through calving. As another feed, the cows were caused to freely take hay (crude protein content from 6 to 8%, TDN from 45 to 55%, Ca from 0.2 to 0.3%, P 0.2%) during the entire dry period. A mixture obtained by adding 50 g of DFA III to 4 kg of the concentrate given 3 weeks before an expected date of calving was supplied to the DFA III supply cows. As the feeds supplied after calving, the cows were caused to freely take 20 kg/day of TMR containing a grass silage a corn silage and a concentrate (crude feed rate 47.8%), 4 kg of a concentrate (crude protein content 18%, TDN 72%, Ca 0.9%, P 0.5%) and hay.
In all cows, the blood was sampled from the tail root immediately after calving. Further, the blood sampling was performed from the same tail root after 6 hours, 24 hours and 72 hours from the blood sampling immediately after confinement (0 hour). In 0 hour and 6 hours for blood sampling, 90 g of DFA III, 100 g of calcium carbonate and 10,000 IU of vitamin D dissolved in warm water were orally administered each time.
The blood was centrifuged at 3,000 rpm for 10 minutes, and the serum portion was stored at −30° C. until analysis. The calcium concentration was measured by the OCPC method.

[5] = 6 hours after first blood sampling, 100 g orally immediately after calving
[6] = time 0: blood sampling immediately after calving, before oral administration of 100 g

SMILES | Increase of milk yield in comparison to the control group (Holstein cows) | Excretion amount of calcium in urine (Holstein cows) [g/day] | Milk fat rate (Holstein cows) [%] | Milk protein rate (Holstein cows) [%] | Milk yield (Holstein cows) [kg/day] | Degree of udder edema (Holstein calving cows [1]) | Calcium concentration in blood (Holstein calving cows [2]; [5]) [mg/dL] | Increase of calcium concentration in blood from immediately after calving (Holstein calving cows [2]) | Calcium concentration in blood (Holstein calving cows [2]; [6]) [mg/dL] | other results
OCC12OCC3OC(CO)(OCC(O1)C(O)C2O)C(O)C3O [DFA IV, di-D-fructfuranose-2,6:6.2′ dianhydride] | approximately 1 kg | 4.0 | 3.92 | 3.11 | 35.2 | 3.1 | 8.0 | approximately 1 mg/dl | 7.1 | Degradation in rumen culture solution (rumen microorganisms; any of the inoculums): not degraded; Amount recovered in each incubation time (rumen microorganisms; liquid chromatography): approximately the total amounts thereof were recovered
OC[C@H]1O[C@@]2(CO[C@]3(CO)O[C@H](CO)[C@@H](O)[C@@H]3O2)[C@@H](O)[C@@H]1O [DFA III, di-D-fructfuranose-1,2;2,3′ dianhydride] | approximately 1 kg | 4.2 | 3.86 | 3.15 | 35.6 | 3.3 | 8.3 | approximately 1 mg/dl | 7.3 | Calcium concentration in blood (Holstein calving cows [3]; 6 hours after first blood sampling, oral administration immediately after calving): 7.9 mg/dL; Calcium concentration in blood (Holstein calving cows [3]; 70 hours after first blood sampling, oral administration immediately after calving): 8.5 mg/dL; Increase of calcium concentration in blood in comparison to that immediately after calving (Holstein calving cows [3]; in 6 hours): 1.2 mg/dL; Calcium concentration in blood (Holstein calving cows [3]; time 0: immediately after calving, before oral administration): 6.7 mg/dL; Death in acute toxicity test (mice): no death example was observed; Calcium concentration in blood immediately after calving according to the parity ([4]; 10 DFA III supply cows, DFA III at dry period): not decreased by increasing the parity; Change in calcium concentration in blood after calving (0 to 72 hours) ([4]; Yes-Present calving, 8 cows, DFA III at dry period): shifted at a higher level than in the previous calving; Time for calcium concentration in blood to reach the normal value (9 to 11 mg/dl) ([4]; after calving, DFA III supplied at a dry period, 90 g DFA III, calcium carbonate and vitamin D at 0 and 6 hours): approximately 6 hours; Increase of calcium concentration in blood immediately after calving in comparison to the previous calving ([4]; present calving with DFA III 50 g/day at dry period vs previous calving without): 1.0 mg/dL; Calcium concentration in blood immediately after calving (average) ([4]; present calving, DFA III 50 g/day at a dry period from 3 weeks before expected date of calving): 8.1 mg/dL; Calcium concentration in blood immediately after calving, individual cows ([4]; present calving, DFA III supply at dry period): ≥ 7 mg/dL; Calcium concentration in blood (Holstein calving cows [2]; 60 hours after first blood sampling, 100 g orally immediately after calving): 8.0 mg/dL
